From ChEMBL document CHEMBL1141518, “Novel non-peptidic and small-sized BACE1 inhibitors” (Bioorg Med Chem Lett, 2008)
The source made the active and inactive calls. The rule behind the calls is not given here.

How the values were obtained:
Beta-secretase 1 [1] = target: T1, Beta-secretase 1 (Homo sapiens, UniProt P56817); test: Inhibition of human recombinant BACE1 at 2 uM by FRET assay
Beta-secretase 1 [2] = target: T1, Beta-secretase 1
Description: (§1) Inhibition of human recombinant BACE1 by FRET assay

Beta-secretase 1 [3] = target: T1, Beta-secretase 1; test: Inhibition of human recombinant BACE1 at 0.2 uM by FRET assay
Beta-secretase 1 [4] = target: T1, Beta-secretase 1; remark: listed apart in the source
Description: as §1

T1 sequence (P56817 whole entry): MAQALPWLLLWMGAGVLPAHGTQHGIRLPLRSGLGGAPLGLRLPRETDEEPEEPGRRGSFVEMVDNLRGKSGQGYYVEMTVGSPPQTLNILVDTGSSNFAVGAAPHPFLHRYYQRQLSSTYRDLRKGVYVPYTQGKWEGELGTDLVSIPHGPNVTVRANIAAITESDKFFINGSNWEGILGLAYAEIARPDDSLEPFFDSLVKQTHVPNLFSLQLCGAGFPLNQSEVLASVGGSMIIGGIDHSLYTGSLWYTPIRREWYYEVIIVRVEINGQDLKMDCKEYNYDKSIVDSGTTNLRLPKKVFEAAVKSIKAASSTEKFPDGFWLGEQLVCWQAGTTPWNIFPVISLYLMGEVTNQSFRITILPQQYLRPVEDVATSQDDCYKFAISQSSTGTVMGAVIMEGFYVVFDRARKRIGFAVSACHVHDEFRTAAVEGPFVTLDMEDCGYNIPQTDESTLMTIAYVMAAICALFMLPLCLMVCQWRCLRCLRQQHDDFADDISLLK

Compound | inhibition (Beta-secretase 1 [1]) [%] | also measured
C[C@@H](NC(=O)c1cc(=O)cc(C(=O)N[C@@H](Cc2ccccc2)[C@H](O)C(=O)Nc2cccc(-c3nn[nH]n3)c2)o1)c1ccccc1 | 70 | –
CC(C)(NC(=O)c1cc(OS(C)(=O)=O)cc(C(=O)N[C@@H](Cc2ccccc2)[C@H](O)C(=O)Nc2cccc(-c3nn[nH]n3)c2)n1)c1ccccc1 | 84 | –
CS(=O)(=O)Oc1cc(C(=O)N[C@@H](Cc2ccccc2)[C@H](O)C(=O)Nc2cccc(-c3nnn[nH]3)c2)nc(C(=O)N2COC[C@@H]2c2ccccc2)c1 | – | IC50 (Beta-secretase 1 [2]): 96 nM
C[C@@H](NC(=O)c1cc(=O)cc(C(=O)N[C@@H](Cc2ccccc2)[C@H](O)C(=O)Nc2cccc(-c3nn[nH]n3)c2)[nH]1)c1ccccc1 | 51 | –
CS(=O)(=O)Oc1cc(C(=O)N[C@@H](Cc2ccccc2)[C@H](O)C(=O)Nc2cccc(-c3nn[nH]n3)c2)nc(C(=O)N2COC[C@@H]2c2ccccc2)c1 | 96 | inhibition (Beta-secretase 1 [3]): 73%
CC(C)(NC(=O)c1cc(=O)cc(C(=O)N[C@@H](Cc2ccccc2)[C@H](O)C(=O)Nc2cccc(-c3nn[nH]n3)c2)o1)c1ccccc1 | 81 | –
CCCN(CCC)C(=O)c1cccc(C(=O)N[C@@H](Cc2ccccc2)[C@@H](O)C(=O)Nc2cccc(C(=O)O)c2)n1 | – | Activity (Beta-secretase 1 [4]): inactive
C[C@@H](NC(=O)c1cccc(C(=O)N[C@@H](Cc2ccccc2)[C@H](O)C(=O)Nc2cccc(-c3nn[nH]n3)c2)n1)c1ccccc1 | 66 | –
O=C(N[C@@H](Cc1ccccc1)[C@H](O)C(=O)Nc1cccc(-c2nn[nH]n2)c1)c1cccc(C(=O)N2COC[C@@H]2c2ccccc2)n1 | 93 | inhibition (Beta-secretase 1 [3]): 63%
CC(C)(NC(=O)c1cc(=O)cc(C(=O)N[C@@H](Cc2ccccc2)[C@H](O)C(=O)Nc2cccc(-c3nn[nH]n3)c2)[nH]1)c1ccccc1 | 65 | –
O=C(N[C@@H](Cc1ccccc1)[C@H](O)C(=O)Nc1cccc(-c2nn[nH]n2)c1)c1cc(=O)cc(C(=O)N2COC[C@@H]2c2ccccc2)[nH]1 | 83 | inhibition (Beta-secretase 1 [3]): 36%
CC(C)(NC(=O)c1cccc(C(=O)N[C@@H](Cc2ccccc2)[C@H](O)C(=O)Nc2cccc(-c3nn[nH]n3)c2)n1)c1ccccc1 | 69 | –
O=C(N[C@@H](Cc1ccccc1)[C@H](O)C(=O)Nc1cccc(-c2nnn[nH]2)c1)c1cc(O)cc(C(=O)N2COC[C@@H]2c2ccccc2)n1 | – | IC50 (Beta-secretase 1 [2]): 360 nM
O=C(N[C@@H](Cc1ccccc1)[C@H](O)C(=O)Nc1cccc(-c2nnn[nH]2)c1)c1cccc(C(=O)N2COC[C@@H]2c2ccccc2)n1 | – | IC50 (Beta-secretase 1 [2]): 140 nM
O=C(N[C@@H](Cc1ccccc1)[C@H](O)C(=O)Nc1cccc(-c2nn[nH]n2)c1)c1cc(=O)cc(C(=O)N2COC[C@@H]2c2ccccc2)o1 | 96 | inhibition (Beta-secretase 1 [3]): 78%; IC50 (Beta-secretase 1 [2]): 50 nM
